Where two headings read alike, the source gives them in different places. Where only a bound is given, the exact number is not on record here.

The subject of series [1] is human glioblastoma cells (U373). In words: Dark and light cytotoxicity, resazurin cell viability assay, U373. In kind it is cell-based. The settings on record: for PI (IC50 in the dark/IC50 upon light irradiation): U373, 480 nm. The method, then:
(§1) HeLa and CT-26 cell lines were cultured in DMEM media (Gibco, Life Technologies, USA) supplemented with 10% of fetal calf serum (Gibco). U87 and U373 cell lines were cultured in MEM media with addition of 1% of MEM NEAA (non-essential aminoacids) (Gibco) and 10% of fetal calf serum. RPE-1 cells were cultured in DMEM/F-12 (Gibco) supplemented with 10% of fetal calf serum. RPE-1 stable cells lines were cultured as RPE-1 cells with addition of geneticin (0.5 mg/ml) (Gibco). All cell lines were complemented with 100 U/ml penicillin-streptomycin mixture (Gibco), and maintained in humidified atmosphere at 37° C. and 5% of CO2.
(§2) Dark and light cytotoxicity of the Ru(II) complexes was assessed by fluorometric cell viability assay using resazurin (ACROS Organics). For dark and light cytotoxicity, cells were seeded in triplicates in 96 well plates at a density of 4000 cells per well in 100 μl, 24 h prior to treatment. The medium was then replaced with increasing concentration of the tested complexes and cells were incubated for 4 h. Medium was then replaced for fresh complete medium. Cells used for light cytotoxicity experiment were exposed to: 480 nm light for 10 min, 510 nm for 40 min, 540 for 60 min or 595 nm for 120 min in a 96-well plate using a LUMOS-BIO photoreactor (Atlas Photonics). Each well was individually illuminated with a LED at constant current. After irradiation cells were kept for another 44 h in the incubator and the medium was replaced by fresh complete medium containing resazurin (0.2 mg ml^−1 final concentration). After 4 h incubation at 37° C., the fluorescence signal of the resorufin product was read by SpectraMax M5 microplate reader (ex: 540 nm em: 590 nm). IC50 values were calculated using GraphPad Prism software.
(§3) The potential of the complexes to act as PDT PSs was determined on mouse colon carcinoma cells (CT-26), human glioblastoma cells (U87 and U373), human cervical carcinoma cells (HeLa) as well as non-cancerous retina pigmented epithelial cell line (RPE-1) according to the method described above. […] Ideally, a PDT PS should be non-toxic in the dark and highly toxic upon light activation. […] The toxicity of the compounds upon light irradiation (480 nm, 10 min, 3.21 J cm^−2) was then investigated.
A general note: The colour change of resazurin is a common sign of viable cells or microbes.

The subject of series [2] is human glioblastoma cells (U87). In words: Dark and light cytotoxicity, resazurin cell viability assay, U87. Format: cell-based. The settings on record: for PI (IC50 in the dark/IC50 upon light irradiation): U87, 480 nm. The method, then: as §1, §2, §3
Series [3] deals with CT-26 mouse colon carcinoma cells. In words: Dark and light cytotoxicity, resazurin cell viability assay, CT-26. Format: cell-based. The settings on record: for PI (IC50 in the dark/IC50 upon light irradiation): CT-26, 480 nm. The method, then: as §1, §2, §3
Series [4] in a line: Emission of the complexes in CH3CN upon excitation at 355 nm. In kind it is physicochemical. The settings on record: room temperature. The method, then:
The absorption of the samples in cuvettes has been measured with a Lambda 800 UV/VIS Spectrometer (PerkinElmer Instruments) and in 96 well plates with a SpectraMax M2 Spectrometer (Molecular Devices). The emission was measured by irradiation of the sample in fluorescence quartz cuvettes (width 1 cm) using a NT342B Nd-YAG pumped optical parametric oscillator (Ekspla) at 355 nm. Luminescence was focused and collected at right angle to the excitation pathway and directed to a Princeton Instruments Acton SP-2300i monochromator equipped with 1200 g/mm grating blazed at 500 nm. As a detector a XPI-Max 4 CCD camera (Princeton Instruments) has been used.
Upon excitation at 355 nm, the emission of the complexes in CH3CN was determined. The maximum of the emission signal was measured between 600-710 nm (Table 1). […] This leads for all investigated complexes to a large Stokes shift implying minimal inference between excitation and luminescence.

Series [5] in a line: In vivo biodistribution in healthy BALB/c mice (ruthenium by ICP-MS). Also on record: species or system mouse. The method, then: Twenty four, 8 week old healthy BALB/c female mice were used in this study. 0.015 mg/ml solution of complex 6 was prepared in Milli-Q water and filtrated (0.2 μm cellulose acetate membrane, VWR). For the introduction of solution of complex 6, IV injection was used (300 μl per mouse). Organ samples, including brain, liver, spleen, kidneys and lung, were collected from treated mice after 2 h, 6 h and 24 h post-injection. Each time six mice were sacrificed. Remaining six animals were used as a control.
For these experiments, we have decided to use the chloride salt of the complex 6 to improve its solubility. The time-dependent biodistribution of this compound in different organs was determined in healthy 8-week-old BALB/c mice according to the above-described method. The amount of ruthenium in the tested samples was assessed using Inductive Coupled Plasma Mass-Spectrometry (ICP-MS). […] After 24 h, the amount of ruthenium in the liver decreased. This is a very promising result that could indicate that complex 6 is metabolized by the liver in living organisms.

Where [6] appears, read: U373, dark, read-out: IC50 Dark.
Setting [7] is: U373, light 480 nm, 10 min, 3.21 J cm^−2, read-out: IC50 Light.
Where [8] appears, read: U87, light 480 nm, 10 min, 3.21 J cm^−2, read-out: IC50 Light.
[9] abbreviates: CT-26, dark, 4 h incubation, read-out: IC50 Dark.
[10] abbreviates: CT-26, light 480 nm, 10 min, 3.21 J cm^−2, read-out: IC50 Light.

Broadly, the IC50 is the midpoint of a concentration-inhibition curve. Take “((E,E′)-4,4′-Bis(N,N′-dimethylaminovinyl)-2,2′-bipyridine)bis(1,10-phenanthroline)ruthenium(II) hexafluorophosphate [Compound 5]”: the IC50 in series [1] (setting [6]) is > 100 µM; in series [1] (setting [7]) it was > 100 µM; in series [2] (U87, dark, read-out: IC50 Dark), > 100 µM; in series [2] (setting [8]) it was > 100 µM; in series [3] (setting [9]), > 100 µM; in series [3] (setting [10]), 52.5 ± 6.04 µM. Besides, the “PI (IC50 in the dark/IC50 upon light irradiation)” value in series [3] (10 min) was >2. For the same molecule, the “Emission λem” value in series [4] came out at 703 nm.
Consider `Cc1ccnc(-c2cc(C)ccn2)c1.F[P-](F)(F)(F)(F)F.F[P-](F)(F)(F)(F)F.[Ru].c1cnc2c(c1)ccc1cccnc12.c1cnc2c(c1)ccc1cccnc12` [Compound 2, (4,4′-Dimethyl-2,2′-bipyridine)bis(1,10-phenanthroline)ruthenium(II)hexafluorophosphate], for which the IC50 in series [1] (setting [6]) was > 100 µM; in series [1] (setting [7]), > 100 µM; in series [2] (U87, dark, read-out: IC50 Dark), > 100 µM; in series [2] (setting [8]), 71.4 ± 7.54 µM; in series [3] (setting [9]) it was > 100 µM; in series [3] (setting [10]), 91.2 ± 7.54 µM. Moreover, the “PI (IC50 in the dark/IC50 upon light irradiation)” value in series [2] (10 min) and in series [3] (10 min) was >1 each time. For the same molecule, the “Emission λem” value in series [4] is 606 nm.
Take “((E,E′)-4,4′-Bis(N,N′-dimethylaminovinyl)-2,2′-bipyridine)bis(4,7-diphenyl-1,10-phenanthroline)ruthenium(II) hexafluorophosphate [Compound 7]”: the “PI (IC50 in the dark/IC50 upon light irradiation)” value is >6.7 in series [1] (10 min), >12.7 in series [2] (10 min) and 14.3 in series [3] (10 min). For the same molecule, the half-maximal inhibitory concentration (IC50) is > 100 µM in series [1] (setting [6]); 14.8 ± 0.81 µM in series [1] (setting [7]); > 100 µM in series [2] (U87, dark, read-out: IC50 Dark); 7.9 ± 0.54 µM in series [2] (setting [8]); 94.5 ± 7.38 µM in series [3] (setting [9]); 6.62 ± 0.7 µM in series [3] (setting [10]). The “Emission λem” value in series [4] came out at 694 nm.
On to “(4,4′-Dibromo-2,2′-bipyridine)bis(1,10-phenanthroline)ruthenium(II) hexafluorophosphate [Compound 3]”, for which the IC50 in series [1] (setting [6]) is > 100 µM; in series [1] (setting [7]), > 100 µM; in series [2] (U87, dark, read-out: IC50 Dark) it was > 100 µM; in series [2] (setting [8]), > 100 µM; in series [3] (setting [9]), > 100 µM; in series [3] (setting [10]), 85.7 ± 9.47 µM. Also, the “PI (IC50 in the dark/IC50 upon light irradiation)” value in series [3] (10 min) was >1. In series [4], the “Emission λem” value is recorded as 645 nm.
As for “(2,2′-bipyridine-4,4′-carboxamide)bis(1,10-phenanthroline)ruthenium(II) hexafluorophosphate [Compound 4]”, the IC50 is > 100 µM in series [1] (setting [6]); > 100 µM in series [1] (setting [7]); > 100 µM in series [2] (U87, dark, read-out: IC50 Dark); > 100 µM in series [2] (setting [8]); > 100 µM in series [3] (setting [9]); 72.6 ± 7.44 µM in series [3] (setting [10]). In series [3] (10 min), the “PI (IC50 in the dark/IC50 upon light irradiation)” value is given as >1. For the same molecule, in series [4], the “Emission λem” value is listed as 654 nm.
Regarding `F[P-](F)(F)(F)(F)F.F[P-](F)(F)(F)(F)F.[Ru+2].c1ccc(-c2ccccn2)nc1.c1cnc2c(c1)ccc1cccnc12.c1cnc2c(c1)ccc1cccnc12` [Compound 1, (Bipyridine)bis(1,10-phenanthroline)ruthenium(II)hexafluorophosphate], the half-inhibitory concentration (IC50) in series [1] (setting [6]) was > 100 µM; in series [1] (setting [7]), > 100 µM; in series [2] (U87, dark, read-out: IC50 Dark) it was > 100 µM; in series [2] (setting [8]) it was 93.7 ± 2.5 µM; in series [3] (setting [9]), > 100 µM; in series [3] (setting [10]), > 100 µM. Besides, in series [2] (10 min), the “PI (IC50 in the dark/IC50 upon light irradiation)” value was >1. Moreover, the “Emission λem” value in series [4] is reported as 600 nm.
On to “(4,4′-Dimethyl-2,2′-bipyridine)bis(4,7-diphenyl-1,10-phenanthroline)ruthenium(II) hexafluorophosphate [Compound 6]”, for which the “PI (IC50 in the dark/IC50 upon light irradiation)” value in series [1] (10 min) turned out to be 12.37; in series [2] (10 min), 42.5; in series [3] (10 min), 16.3. Moreover, the IC50 in series [1] (setting [6]) is 23.4 ± 0.53 µM; in series [1] (setting [7]), 1.89 ± 0.07 µM; in series [2] (U87, dark, read-out: IC50 Dark), 28.4 ± 1.97 µM; in series [2] (setting [8]), 0.67 ± 0.13 µM; in series [3] (CT-26, dark control of the 510 nm 40 min experiment, read-out: IC50 Dark), 4.18 ± 0.56 µM; in series [3] (CT-26, dark control of the 540 nm 60 min experiment, read-out: IC50 Dark), 3.27 ± 0.64 µM. Further, the 50% inhibitory concentration (IC50) in series [3] (CT-26, dark control of the 595 nm 2 h experiment, 2 h at 37° C. in non-CO2 atmosphere, read-out: IC50 Dark) turned out to be 1.408 ± 0.003 µM; in series [3] (setting [9]) it was 3.09 ± 0.3 µM; in series [3] (setting [10]), 0.19 ± 0.04 µM; in series [3] (CT-26, light 540 nm 60 min, read-out: IC50 Light), 0.34 ± 0.005 µM; in series [3] (CT-26, light 595 nm 2 h, no CO2 atmosphere during irradiation, read-out: IC50 Light) it was 0.06 ± 0.004 µM. In series [5] (IV injection, 6 h post injection, chloride salt), the “Levels of Ru in harvested organs (brain, liver, spleen, kidneys, lung)” value is recorded as “only liver had clearly increased levels of Ru”. Also, the “Amount of ruthenium in the liver” value in series [5] (IV injection, after 24 h, chloride salt) is on record as “decreased”. In addition, the “Behaviour of treated animals” value in series [5] (IV injection, chloride salt) was “behave normally, without signs of pain, stress or discomfort”. For the same molecule, the “Blood analysis, immune response compared to untreated control” value in series [5] (after 24 h treatment) is on record as “no sign of immune response”. Besides, the PI in series [3] (CT-26, 510 nm 40 min) was 20.6; in series [3] (CT-26, 540 nm 60 min), 9.6; in series [3] (CT-26, 595 nm 2 h), 23.47. Further, the “Emission λem” value in series [4] was found to be 623 nm.
